Data as given in patent US6544750B1, “Peptide analogs as selective inhibitors of thrombin activation of protease activated receptor 1” (Thromgen, Inc., priority 1999, dated 2003).
Ends that are not written are not given here.

Columns and labels:
[1] = system: platelets (platelet-rich plasma); assay: γ-thrombin-induced platelet aggregation in platelet-rich plasma; assay type: cell-based, human; conditions: for Fold Increase in Aggregation Inhibition over RPPGF: γ-thrombin, compared to RPPGF at 0.2 mM
Experimental: Fresh whole blood was collected and mixed with 0.013 M sodium citrate and platelet-rich plasma was prepared according to the method of Meloni et al., J. Biol. Chem. 266, 6786 (1991). Platelet-rich plasma with a normalized platelet count between 2-2.5×10^8 platelets/ml was added to a cuvette of an aggregometer (Chronlog Corp., Havertown, Pa.), standardized using the protocol of Meloni et al., supra. Peptides to be examined were added to the cuvette and the mixture stabilized for a few moments. Once the baseline was stabilized, γ-thrombin (10-70 NM) (Haematologic Technologies, Essex Junction, Vt.) was added to determine the minimal concentration of the agonist necessary to achieve full platelet aggregation. All investigations with peptides were performed using threshold concentrations of γ-thrombin. Aggregation was allowed to proceed for 5 minutes before stopping. When ADP-induced platelet aggregation studies were performed, 1-5 μM ADP (Sigrna) was added to the cuvette containing platelet-rich plasma.

[2] = system: Normal human lung fibroblasts (NHLF); assay: α-thrombin-induced calcium mobilization in fibroblasts (fura-2); assay type: cell-based; conditions: 0.2 mM peptide; for Ca2+ % Inhibition At 0.2 mM Peptide: thrombin-induced calcium mobilization in fibroblasts
Experimental: The second assay developed to assess peptides from the combinatorial libraries uses inhibition of α-thrombin-induced calcium mobilization in fibroblasts. Normal human lung fibroblasts (NHLF) were purchased from Clonetics, San Diego, Calif., an affiliate of Bio-Wittaker, Walkersville, Md. The cytoplasmic free Ca^2+ concentration ([Ca^2+]i) was measured using the fluorescent Ca^2+ indicator fura-2 (Molecular Probes, Inc., Eugene, Oreg.). Suspension of fibroblasts in Hepes-Tyrode's buffer were loaded with fura-2 by incubation at 37° C. with 2 μM fura-2/acetoxymethyl ester for 45 minutes according to the method of Rasmussen et al., J. Biol. Chem. 268, 14322 (1993). The labeled fibroblasts were separated from excess probe by washing by centrifugation at 1000 rpm (180×g). Aliquots of the labeled fibroblasts were transferred into a quartz cuvette with a magnetic stirrer, which was then placed in a thennostatically controlled chamber at 37° C. in a fluorescence spectrophotometer (Perkin-Elmer LS50B spectrofluorometer, Chicago, Ill.). Reagents, test peptide (SEQ ID NO: 5) (from 0.2 mM to effective lower concentration), and α-thrombin (2-4 nM), were sequentially added directly to the cuvette. The excitation wavelengths varied between 340 and 380 nm. Fluorescence was measured by recording emitted light at 510 nm as reported by Fisher et al., Mol Pharm. 35, 195 (1989). The minimum emission was determined on a solubilized fibroblast sample in the presence of 10 mM EDTA; maximum emission was determined on the same sample with 10 mM Ca^2+ added. The intrafibroblast free Ca^2+ concentration was calculated by the method of Grykiewicz et al., J. Biol. Chem. 260, 3440 (1985). The ratio of the fluorescence readings was calculated as R=340/380 nm and processed according to the equation [Ca^2+]i=KD((R−Rmim)/Rmax−R)) (Sf2/Sb2) to determine the intrafibroblast free Ca^2+ concentration. The KD for fura-2 was assumed to be 224 nM. Rmax and Rmin are the maximum and minimum fluorescence ratios measured at the end of the experiment, respectively; Sf2 and Sb2 are the fluorescence values at 380 nm in the absence and presence of saturating [Ca 2+], respectively. The reaction was monitored for 3-5 minutes. […] In FIG. 4, peptide RGDWC (SEQ ID NO: 20) at 0.2 mM inhibited 31% of 4 nM α-thrombin-induced Ca^2+ mobilization in fibroblasts.

[3] = biological target: biotin-NAT12 (NATLDPRSFLLR, peptide from PAR1) (Homo sapiens, UniProt P25116); assay: Biotin-NAT12 binding assay to peptides coupled to microtiter plates; conditions: relative to RPPGF given arbitrary binding level of 1
Experimental: A third assay was developed to ascertain the ability of biotin-NAT12 (NATLDPRSFLLR, SEQ ID NO: 41) to directly bind to peptides linked to microtiter plates. In this assay, peptide analogs were linked to microtiter plate cuvette wells by incubation of the peptide in 0.1 M Na2CO3, pH 9.6 buffer overnight at 4° C. After coupling the peptide to the cuvette well, the wells were dumped and each well was blocked with 1% bovine serun albumin in 0.01 M Na3PO4, 0.15 M NaCl, at pH 7.4. After incubation for 1 hour, the wells were dumped and washed three times with PBS-Tween. The wells were then incubated with biotin-NAT12. The amount of biotin-NAT12 bound was determined by adding streptavidin-peroxidase followed by adding turbo TMB (Pierce).
In decreasing order of binding level, these peptides include: RGKSC, RGKMC, RGKHC, RGKKC, RGKFC, RGKLC, RGKWC, and RGKVC (SEQ ID NOS 18, 7, 13, 14, 11, 1, 5 and 19, respectively). […] The best to least RGDO4C (SEQ ID NO: 44) peptides to bind biotin-NAT12 listed in Table VI are: RGDSC, RGDGC, RGDQC, RGDEC, RGDIC, RGDPC, RGDDC, and RGDYC (SEQ ID NOS 34, 28, 23, 22, 36, 38, 27 and 35, respectively). A solid phase peptide-peptide binding assay was used to determine biotin-NAT12 binding to library peptides. Test peptides in 0.1 M Na2CO3, pH 9.6 buffer, at 10 μg/well in 50 μl volume, were coupled to microtiter plate wells by overnight incubation at 4° C. After incubation, the contents of the wells were discarded and the wells were washed with a pH 7.4 buffer containing 0.01 M Na3PO4, 0.15 M NaCl, and 0.01% Tween 20. After blocking each well with 1% radioimmunoassay grade bovine serum albumin, the linked peptides were incubated with 100 μl of 100 μM biotin-NAT12 for 1 hour at 37° C. After incubation, the contents of the wells were dumped and the wells were washed three times (100 μl/well each time) with the buffer identified above. Each well then was incubated with 100 μl of 2 μg/ml solution of Immuno-Pure streptoavidin horeseradish peroxidase conjugate (Pierce Chemical Co., […], Ill.) for 1 hour at room temperature. The contents of the wells were discarded and the wells were washed three times as described above. The wells were then incubated with 100 μl of peroxidase-specific fast reacting substrate, turbo-3,3′,5,5′-tetramethylbenzidine (turbo-TMB, Pierce) for 5 minutes at room temperature and the developing color reaction was stopped by the addition of 100 μof 1 M phosphoric acid. The absorbance was measured at 450 nm using a Microplate Auto Reader EL311 (Bio-Tek, Winooski, Vt.).

[4] = RGKO4C sublibrary, platelet-rich plasma

Level of Binding to Biotin-NAT12 ([3]; RGDO4C sublibrary)	Level of Binding to Biotin-NAT12 ([3]; RGKO4C sublibrary)	Substance	Fold Increase in Aggregation Inhibition over RPPGF ([1]; RGDO4C sublibrary)	Ca2+ % Inhibition At 0.2 mM Peptide ([2]; RGDO4C sublibrary)	Ca2+ % Inhibition At 0.2 mM Peptide ([2]; RGKO4C sublibrary)	other results
0.87	–	RGDMC: peptide of the H-R-G-D-O4-C-NH2 sublibrary (H-RGDMC-NH2)	15 fold	26.2%	–	–
–	1.8	RGKKC: peptide of the H-R-G-K-O4-C-NH2 sublibrary (H-RGKKC-NH2)	–	–	38.9%	–
–	1.2	RGKVC: peptide of the H-R-G-K-O4-C-NH2 sublibrary (H-RGKVC-NH2)	–	–	17.3%	–
–	0.94	RGKYC: peptide of the H-R-G-K-O4-C-NH2 sublibrary (H-RGKYC-NH2)	–	–	0%	Fold Increase in Aggregation Inhibition over RPPGF [1, 4]: 1.3 fold
1.28	–	RGDEC: peptide of the H-R-G-D-O4-C-NH2 sublibrary (H-RGDEC-NH2)	20 fold	1.96%	–	–
–	0.926	RGKEC: peptide of the H-R-G-K-O4-C-NH2 sublibrary (H-RGKEC-NH2)	–	–	13.8%	–
1.12	–	RGDPC: peptide of the H-R-G-D-O4-C-NH2 sublibrary (H-RGDPC-NH2)	–	4.13%	–	–
–	0.689	RGKAC: peptide of the H-R-G-K-O4-C-NH2 sublibrary (H-RGKAC-NH2)	–	–	5.2%	–
0.739	–	RGDNC: peptide of the H-R-G-D-O4-C-NH2 sublibrary (H-RGDNC-NH2)	5 fold	44.3%	–	–
–	0.82	RGKDC: peptide of the H-R-G-K-O4-C-NH2 sublibrary (H-RGKDC-NH2)	–	–	26.7%	–

Further lines, the substance ahead of its results:

Substance	Level of Binding to Biotin-NAT12 ([3]; RGDO4C sublibrary)	Level of Binding to Biotin-NAT12 ([3]; RGKO4C sublibrary)	Fold Increase in Aggregation Inhibition over RPPGF ([1]; RGDO4C sublibrary)	Ca2+ % Inhibition At 0.2 mM Peptide ([2]; RGDO4C sublibrary)	Ca2+ % Inhibition At 0.2 mM Peptide ([2]; RGKO4C sublibrary)	other results
RGDFC: peptide of the H-R-G-D-O4-C-NH2 sublibrary (H-RGDFC-NH2)	0.671	–	25 fold	30.3%	–	–
RGDIC: peptide of the H-R-G-D-O4-C-NH2 sublibrary (H-RGDIC-NH2)	1.22	–	3.8 fold	9.3%	–	–
RGKPC: peptide of the H-R-G-K-O4-C-NH2 sublibrary (H-RGKPC-NH2)	–	1.2	–	–	31.13%	–
RGKLC: peptide of the H-R-G-K-O4-C-NH2 sublibrary (H-RGKLC-NH2)	–	1.5	–	–	8.33%	Fold Increase in Aggregation Inhibition over RPPGF [1, 4]: 7.7 fold
RGDAC: peptide of the H-R-G-D-O4-C-NH2 sublibrary (H-RGDAC-NH2)	0.8	–	–	11%	–	–
RGDDC: peptide of the H-R-G-D-O4-C-NH2 sublibrary (H-RGDDC-NH2)	1.11	–	7.5 fold	8.9%	–	–
RGKHC: peptide of the H-R-G-K-O4-C-NH2 sublibrary (H-RGKHC-NH2)	–	2.1	–	–	31.2%	–
RGKFC: peptide of the H-R-G-K-O4-C-NH2 sublibrary (H-RGKFC-NH2)	–	1.5	–	–	2.74%	–
RGKNC: peptide of the H-R-G-K-O4-C-NH2 sublibrary (H-RGKNC-NH2)	–	1.2	–	–	0%	–
RGDGC: peptide of the H-R-G-D-O4-C-NH2 sublibrary (H-RGDGC-NH2)	1.39	–	7.5 fold	9.9%	–	–
Arg-Gly-Asp-Trp-Cys (RGDWC-NH2) [peptide of the H-R-G-D-O4-C-NH2 sublibrary]	0.374	–	31.7 fold	31.9%	–	concentration down to which peptide inhibited γ-thrombin-induced platelet aggregation ([1]; 70 nM γ-thrombin): ≥ 25 µM; peptide concentration at which γ-thrombin-induced platelet aggregation returned ([1]; 70 nM γ-thrombin): 6.25 µM; peptide concentration that abolished (completely inhibited) γ-thrombin-induced platelet aggregation ([1]; 70 nM γ-thrombin, platelet-rich plasma): 0.2 mM; effect on thrombin-induced Ca2+ mobilization (in words) ([2]; 4 nM α-thrombin): almost had no effect; inhibition of α-thrombin-induced Ca2+ mobilization ([2]; 4 nM α-thrombin, fibroblasts): 31%
RGDRC: peptide of the H-R-G-D-O4-C-NH2 sublibrary (H-RGDRC-NH2)	0.99	–	5 fold	0%	–	–
RGKSC: peptide of the H-R-G-K-O4-C-NH2 sublibrary (H-RGKSC-NH2)	–	2.2	–	–	0.01%	–
RGKGC: peptide of the H-R-G-K-O4-C-NH2 sublibrary (H-RGKGC-NH2)	–	1.0	–	–	12.4%	–
RGKMC: peptide of the H-R-G-K-O4-C-NH2 sublibrary (H-RGKMC-NH2)	–	2.1	–	–	7.95%	Fold Increase in Aggregation Inhibition over RPPGF [1, 4]: 1.3 fold
RGKQC: peptide of the H-R-G-K-O4-C-NH2 sublibrary (H-RGKQC-NH2)	–	0.374	–	–	28%	–
